Test results taken from patent publication US20230390296A1, “NOVEL TREATMENT AND PREVENTION OF SARCOPENIA-RELATED DISEASES” (KEIO UNIVERSITY, priority 2020, published 2023).
“Also recorded” adds a separate entry of the source.

Columns and labels:
P301S mouse models = assay: Tau phosphorylation, memory and brain atrophy in tauopathy model; format: in vivo; conditions: P301S (FTDP-17) mouse model
old mice (C57BL/6J) = assay: Treadmill test of muscle strength (endurance) in young and old mice; format: in vivo, mouse
Source text: Decrease in endurance in old mice In order to confirm that a decrease in muscle strength is observed in mouse models (C57BL/6J) (purchased from Oriental Yeast), the muscle strength (endurance) in 15-week old young mice and 79-week-old old mice was investigated in a treadmill test in accordance with the following (FIG. 1A). Prior to recording the performance, mice were trained for 3 days to acclimate the mice to the equipment. Electric stimulation grid was adjusted to 1 mA, and the gradient was set to 15 degrees. On the first day of training, mice were induced to walk for 10 minutes at a rate of 10 m/minute, allowed to rest for 10 minutes, and then induced to walk for 10 minutes at a rate of 10 m/minute on a treadmill. On day 2 and day 3, the first two steps were the under the same conditions as day 1, and then the mice were induced to start walking at 10 m/minute. The speed was increased by 1 m/minute until reaching the maximum speed of 20 m/minute. On day 4, the maximum exercise endurance was measured. Six mice were placed on a treadmill, which was started at a belt speed of 5 m/minute for 5 minutes to let the mice warm up. The speed was increased 1 m/minute until reaching the maximum speed of 20 m/minute. After making the mice run for 5 minutes, the speed was increased from 20 m/minute to 21 m/minute for 10 minutes. The mice were then forced to run at 22 m/minute until stalling on the electric stimulation grid for 10 seconds. The distance traveled until stalling for 10 seconds was measured.
OK-1 manufactured in Manufacturing Example 1 was intraperitoneally administered to young and old mice twice a week over three months. The dosage was 20 mg/kg/day.
74-week old mice (C57B16/J) were purchased from Oriental Yeast. […] Muscle strength (endurance) and grip strength of mice administered with C-82 were then measured through a treadmill test and smart grip strength meter for rats and mice (Muromachi Kikai Co., Ltd.), respectively. […]

C2C12 cells = assay: Gene expression levels in treated cultured cells; format: cell-based, mouse
Procedure: Mouse striated muscle derived cells, i.e., C2C12 cells, were cultured and treated with OK-1, ICG-001, or C-82. Gene expression levels of cells treated with OK-1, ICG-001, or C-82, and untreated cells are compared.

[1] = system: muscle of mice with/without exercise; assay: Collation of top 100 differentially expressed muscle genes with NIH MedlinePlus (related diseases); design: species or system mouse
Source text: Diseases associated with top 100 genes observed to have differential expression in mice with/without exercise were found by collation with NIH MedlinePlus (FIG. 8).

sarcopenia mouse models [2] = assay: Biochemical test on organ (creatine, IL-6, cholesterol etc. concentrations); format: in vivo; conditions: administered versus non-administered sarcopenia mouse models
Procedure: Mouse models were divided into two groups. The creatine concentration, IL-6 concentration, and cholesterol concentration were measured for sarcopenia mouse models administered with OK-1 and sarcopenia mouse models without administration of OK-1.
Mouse models were divided into two groups. The creatine concentration, IL-6 concentration, cholesterol concentration, UN (urea nitrogen is a biomarker that can predict the dysfunction of kidney or urinary system) concentration, and UA (uric acid is a biomarker for kidney or liver function) concentration were measured for sarcopenia mouse models administered with C-82 and sarcopenia mouse models without administration of C-82.

sarcopenia mouse models [3] = assay: Cardiac function test (echocardiogram and treadmill); format: in vivo; conditions: administered versus non-administered sarcopenia mouse models
Procedure: This Example used mouse models prepared in the Preparation Example.
Measurement can be taken using Kumamoto Mouse Clinic (KMC) of Kumamoto University.
Mouse models were divided into two groups. Cardiac function was tested for sarcopenia mouse models administered with OK-1 and sarcopenia mouse models without administration of OK-1. Cardiac function was tested and analyzed using an echocardiogram and treadmill.
Mouse models were divided into two groups. Cardiac function was tested for sarcopenia mouse models administered with C-82 and sarcopenia mouse models without administration of C-82. Cardiac function was tested and analyzed using an echocardiogram and treadmill.

[4] = system: muscle of mice (C57BL/6J) with exercise; assay: Gene analysis (RNA-seq, GSEA) of muscle of administered mice with exercise; format: in vivo, mouse
Procedure: Gene analysis (RNA-seq) in OK-1 administered mice (C57BL/6J) with exercise was performed by the same method as Example 2.
The category of genes with differential expression identified in Example 5 was analyzed by the same method (GSEA) as Example 3 (FIG. 6).

sarcopenia mouse models [5] = assay: NTX (cross linked N-telopeptide of type I collagen) concentration; format: in vivo; conditions: administered versus non-administered sarcopenia mouse models
Procedure: Mouse models were divided into two groups. The NTX (cross linked N-telopeptide of type I collagen) concentration was measured for sarcopenia mouse models administered with OK-1 and sarcopenia mouse models without administration of OK-1.
Mouse models were divided into two groups. The NTX (cross linked N-telopeptide of type I collagen) concentration was measured for sarcopenia mouse models administered with C-82 and sarcopenia mouse models without administration of C-82.

Compound | phosphorylation of Tau, memory or brain atrophy (P301S mouse models) | muscle strength (endurance) through a treadmill test (old mice (C57BL/6J); 74-week old mice, 7 mg/kg and 20 mg/kg intraperitoneal twice a week for 6 weeks, versus no administration) | gene expression levels versus untreated cells (C2C12 cells) | diseases associated with the top 100 differentially expressed genes ([1]; C-82 administration, mice with/without exercise) | kidney function and muscle (from creatine, IL-6, cholesterol, UN and UA concentrations) (sarcopenia mouse models [2]) | cardiac function (sarcopenia mouse models [3]) | change in gene expression in muscles ([4]; C-82 administration, same method as Example 2) | osteoporosis (from NTX concentration) (sarcopenia mouse models [5]) | muscle strength (endurance) through a treadmill test (old mice (C57BL/6J); intraperitoneal, twice a week over three months, 20 mg/kg/day, young (15-week) and old (79-week) mice) | gene group associated with OK-1: genes with change in muscle control with/without exercise, disease-associated ([1]; top 100 genes) | muscle (from creatine, IL-6 and cholesterol concentrations) (sarcopenia mouse models [2]) | gene group associated with OK-1 by GSEA: genes regulating muscle genes with exercise ([4]; GSEA) | genes decreased (downregulated expression) significantly in muscle ([4]; OK-1 administration, p<0.05) [genes] | genes increased (upregulated expression) significantly in muscle ([4]; OK-1 administration, p<0.05) [genes] | gene group associated with OK-1: genes associated with muscle control with exercise ([4]; upstream transcription factors)
C[C@H]1[C@H]2N(C(=O)CN(C)N2C(=O)NCc2ccccc2)[C@@H](Cc2ccc(O)cc2)C(=O)N1Cc1cccc2cccnc12 [C-82, (6S,9S)—N-benzyl-6-(4-hydroxybenzyl)-2,9-dimethyl-4,7-dioxo-8-(quinolin-8-ylmethyl)hexahydro-2H-pyrazino[2,1-c][1,2,4]triazine-1(6H)-carboxamide] | suppression in phosphorylation of Tau and improvement in memory or brain atrophy are observed | significant increase in muscle strength (endurance); also recorded: increased significantly | change in gene expression similar to Example 2 | achieves the same result as OK-1 | kidney function and muscle improve | cardiac function is improved | achieves the same result as OK-1 | osteoporosis is improved |  |  |  |  |  |  | 
C[C@H]1[C@H]2N(C(=O)CN(C)N2C(=O)NCc2ccccc2)[C@@H](Cc2ccc(OP(=O)(O)O)cc2)C(=O)N1Cc1cccc2cccnc12 [OK-1] | suppression in phosphorylation of Tau and improvement in memory or brain atrophy are observed |  | change in gene expression similar to Example 2 |  |  | cardiac function is improved |  | osteoporosis is improved | increase in muscle strength due to OK-1 administration, which is specific to old mice | Dsp, Krt17, Comp, Krt86, Krt81, Krt83, Krt14, Abca12, Tchh, Krt5, Dsg4, Lpl, Myh6, Tfap2a, Col1a1, Lepr, Fn1, Col1a2, Col6a1, Col3a1, Mmp2, Acta2, F13a1, Col6a2, and Cx3cr1 | muscle improves | ETS2, ETS1, EP300, RUNX2, SMAD3, SMAD4, E2F1, NOTCH1, TRP53, PAX6, SMAD1, SP1, SPI1, and NFKB1 | 631 | 145 | Jun, Ets1, Sp1, Ep300, Usf2, Fosl1, Nfkb1, Smad3, Srf, Junb, Runx2, Ets2, Etv4, Tgfb1, and Tgfb1i1
